In PubChem BioAssay (NCI) one finds TGI data, which are given here for 16 molecules.

Molecules are shown by their SMILES.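 Method: 48-hour compound exposure of cells in 96-well plates, five concentrations, linear interpolation of endpoints. TGI: concentration producing complete growth inhibition.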

In one assay the test system is MDA-MB-435. Nature of the assay: DTP human tumour cell line panel, 48 h.
The TGI is the concentration at which net growth stops. Read a low TGI as more potent growth arrest. In the case of `Cn1c(=O)oc2cc(C(O)CN3CCN(Cc4ccccn4)CC3)c(Cl)cc21` (stereo not drawn), the TGI is > 100 µM.
On the same count and under the same terms, the figure for `COC(=O)[C@H](Cc1c[nH]c2ccccc12)NC(=O)c1ccc(CNC(=O)/C(C)=C/c2ccccc2)cc1` is > 100 µM; for `C/C(=N/NC(=S)Nc1ccc(Cl)cc1)c1cccc(/C(C)=N\NC(=S)Nc2ccc(Cl)cc2)n1` it is 55.8 µM.

In the next assay the test system is OVCAR-5 ovarian. Nature of the assay: DTP human tumour cell line panel, 48 h.
Molecule `Fc1ccc(C(=C2CCN(CCc3ccc4[nH]c(=S)[nH]c4c3)CC2)c2ccc(F)cc2)cc1` displayed a TGI of 23 µM.
On the same count and under the same terms, the value for `S=c1[nH]c(=S)c2nnn(-c3ccccc3)c2[nH]1` was > 100 µM.
As for `CC(C)CC(NC(=O)C(CI)Cc1ccccc1)C(=O)Nc1ccccc1` (stereo not drawn), the TGI was > 100 µM.
On the same count and under the same terms, the figure for `Cc1cc(C2CC(O)C(CO)O2)c(F)cc1F` (stereo not drawn) is > 100 µM; for `CC(=O)O[C@H]1CC[C@@]2(C)C(=CC[C@@H]3[C@@H]2CC[C@]2(C)NC(=O)/C(=C\c4ccccc4)C[C@@H]32)C1` it is 35 µM; for `N#CC1=C(Nc2ccccc2)SC=C(c2ccccc2)NC1=NCc1ccccc1` it is > 100 µM.
Same read-out and setting: the value for `CNS(=O)(=O)NNS(=O)(=O)c1ccc(Br)cc1` was > 100 µM.
Same read-out and setting: the value for `CC(=O)O[C@H]1CCC2[C@@H]3CCC4Nc5oncc5C[C@]4(C)C3CC[C@@]21C` (stereo partly drawn) was > 10 µM; that for `COC1=CC2C(c3cc4ccccc4n3S(=O)(=O)c3ccccc3)CC1CN2C(=O)OCc1ccccc1` (stereo not drawn) was 45.2 µM; that for `Cc1c(O)c(OC2OC(CO)C(O)C(O)C2O)cc2c1CC[C@@H]1C2(C)C(=O)C[C@]2(C)[C@@H]([C@@](C)(O)C(=O)CCC(C)(C)O)[C@H](O)C[C@@]12C` (stereo partly drawn) was > 100 µM.
Turning to `CCC1CCc2c(c(=O)oc3c2cc(OC)c2cccc(OC)c23)C1` (stereo not drawn), the TGI is > 100 µM.
The same measure, in the same setting: the figure for `Cn1c(=O)oc2cc(C(O)CN3CCN(Cc4ccccn4)CC3)c(Cl)cc21` (stereo not drawn) is > 100 µM; for `COC(=O)[C@H](Cc1c[nH]c2ccccc12)NC(=O)c1ccc(CNC(=O)/C(C)=C/c2ccccc2)cc1` it is > 100 µM; for `C/C(=N/NC(=S)Nc1ccc(Cl)cc1)c1cccc(/C(C)=N\NC(=S)Nc2ccc(Cl)cc2)n1` it is > 100 µM.
The molecule `O=C(O/C=C\OC1CCCC1(c1ccccc1)c1ccccc1)c1ccccc1` (stereo not drawn) yielded a TGI of 31.1 µM. That is a double-digit micromolar value.

A further assay relates to RPMI-8226 leukemia. Nature of the assay: DTP human tumour cell line panel, 48 h.
In turn, `Fc1ccc(C(=C2CCN(CCc3ccc4[nH]c(=S)[nH]c4c3)CC2)c2ccc(F)cc2)cc1` returned a TGI of 8.67 µM. This counts as single-digit micromolar.
Same read-out and setting: the value for `S=c1[nH]c(=S)c2nnn(-c3ccccc3)c2[nH]1` was > 100 µM.
The same measure, in the same setting: the value for `CC(C)CC(NC(=O)C(CI)Cc1ccccc1)C(=O)Nc1ccccc1` (stereo not drawn) was > 100 µM; that for `CC(=O)O[C@H]1CC[C@@]2(C)C(=CC[C@@H]3[C@@H]2CC[C@]2(C)NC(=O)/C(=C\c4ccccc4)C[C@@H]32)C1` was 64.2 µM.
Same read-out and setting: the figure for `N#CC1=C(Nc2ccccc2)SC=C(c2ccccc2)NC1=NCc1ccccc1` is > 100 µM.
With `CNS(=O)(=O)NNS(=O)(=O)c1ccc(Br)cc1`, the TGI is > 100 µM.
On the same count and under the same terms, the figure for `CC(=O)O[C@H]1CCC2[C@@H]3CCC4Nc5oncc5C[C@]4(C)C3CC[C@@]21C` (stereo partly drawn) is > 10 µM; for `Cc1ccc(NC(=O)CSc2nnc(-c3ccc(N=Cc4ccc(Cl)cc4)cc3)o2)cc1` it is > 100 µM; for `COC1=CC2C(c3cc4ccccc4n3S(=O)(=O)c3ccccc3)CC1CN2C(=O)OCc1ccccc1` (stereo not drawn) it is 44.6 µM.
As to `CCC1CCc2c(c(=O)oc3c2cc(OC)c2cccc(OC)c23)C1` (stereo not drawn), the TGI is > 100 µM.
For the molecule `COC(=O)[C@H](Cc1c[nH]c2ccccc12)NC(=O)c1ccc(CNC(=O)/C(C)=C/c2ccccc2)cc1`, the TGI was > 100 µM.
The same measure, in the same setting: the value for `C/C(=N/NC(=S)Nc1ccc(Cl)cc1)c1cccc(/C(C)=N\NC(=S)Nc2ccc(Cl)cc2)n1` was 39.7 µM; that for `O=C(O/C=C\OC1CCCC1(c1ccccc1)c1ccccc1)c1ccccc1` (stereo not drawn) was 6.44 µM.

The next assay relates to SK-MEL-28 melanoma. Nature of the assay: DTP human tumour cell line panel, 48 h.
Turning to `Fc1ccc(C(=C2CCN(CCc3ccc4[nH]c(=S)[nH]c4c3)CC2)c2ccc(F)cc2)cc1`, the TGI was determined as 2.63 µM. That is a single-digit micromolar value.
Still for that read-out and setting: the value for `S=c1[nH]c(=S)c2nnn(-c3ccccc3)c2[nH]1` was > 100 µM.
Still for that read-out and setting: the figure for `CC(C)CC(NC(=O)C(CI)Cc1ccccc1)C(=O)Nc1ccccc1` (stereo not drawn) is > 100 µM; for `Cc1cc(C2CC(O)C(CO)O2)c(F)cc1F` (stereo not drawn) it is > 100 µM; for `CC(=O)O[C@H]1CC[C@@]2(C)C(=CC[C@@H]3[C@@H]2CC[C@]2(C)NC(=O)/C(=C\c4ccccc4)C[C@@H]32)C1` it is 32.3 µM.
Consider `N#CC1=C(Nc2ccccc2)SC=C(c2ccccc2)NC1=NCc1ccccc1`, for which the TGI was > 100 µM.
On the same count and under the same terms, the figure for `CNS(=O)(=O)NNS(=O)(=O)c1ccc(Br)cc1` is > 100 µM; for `CC(=O)O[C@H]1CCC2[C@@H]3CCC4Nc5oncc5C[C@]4(C)C3CC[C@@]21C` (stereo partly drawn) it is > 10 µM.
On the same count and under the same terms, the figure for `Cc1ccc(NC(=O)CSc2nnc(-c3ccc(N=Cc4ccc(Cl)cc4)cc3)o2)cc1` is > 100 µM; for `Cc1c(O)c(OC2OC(CO)C(O)C(O)C2O)cc2c1CC[C@@H]1C2(C)C(=O)C[C@]2(C)[C@@H]([C@@](C)(O)C(=O)CCC(C)(C)O)[C@H](O)C[C@@]12C` (stereo partly drawn) it is > 100 µM; for `CCC1CCc2c(c(=O)oc3c2cc(OC)c2cccc(OC)c23)C1` (stereo not drawn) it is > 100 µM.
The same measure, in the same setting: the value for `Cn1c(=O)oc2cc(C(O)CN3CCN(Cc4ccccn4)CC3)c(Cl)cc21` (stereo not drawn) was > 100 µM; that for `COC(=O)[C@H](Cc1c[nH]c2ccccc12)NC(=O)c1ccc(CNC(=O)/C(C)=C/c2ccccc2)cc1` was 36.7 µM; that for `C/C(=N/NC(=S)Nc1ccc(Cl)cc1)c1cccc(/C(C)=N\NC(=S)Nc2ccc(Cl)cc2)n1` was 45.6 µM.
For the molecule `O=C(O/C=C\OC1CCCC1(c1ccccc1)c1ccccc1)c1ccccc1` (stereo not drawn), the TGI is 18.3 µM.

In the next assay the test system is SK-OV-3 ovarian. The experiment in a line: DTP human tumour cell line panel, 48 h.
`Fc1ccc(C(=C2CCN(CCc3ccc4[nH]c(=S)[nH]c4c3)CC2)c2ccc(F)cc2)cc1` displayed a TGI of 36.8 µM.
The same measure, in the same setting: the value for `S=c1[nH]c(=S)c2nnn(-c3ccccc3)c2[nH]1` was > 100 µM.
Still for that read-out and setting: the value for `CC(C)CC(NC(=O)C(CI)Cc1ccccc1)C(=O)Nc1ccccc1` (stereo not drawn) was > 100 µM; that for `Cc1cc(C2CC(O)C(CO)O2)c(F)cc1F` (stereo not drawn) was > 100 µM; that for `CC(=O)O[C@H]1CC[C@@]2(C)C(=CC[C@@H]3[C@@H]2CC[C@]2(C)NC(=O)/C(=C\c4ccccc4)C[C@@H]32)C1` was 44.3 µM.
The same measure, in the same setting: the figure for `N#CC1=C(Nc2ccccc2)SC=C(c2ccccc2)NC1=NCc1ccccc1` is > 100 µM; for `CNS(=O)(=O)NNS(=O)(=O)c1ccc(Br)cc1` it is > 100 µM; for `CC(=O)O[C@H]1CCC2[C@@H]3CCC4Nc5oncc5C[C@]4(C)C3CC[C@@]21C` (stereo partly drawn) it is > 10 µM.
Take `Cc1ccc(NC(=O)CSc2nnc(-c3ccc(N=Cc4ccc(Cl)cc4)cc3)o2)cc1`: the TGI is > 100 µM.
Same read-out and setting: the figure for `COC1=CC2C(c3cc4ccccc4n3S(=O)(=O)c3ccccc3)CC1CN2C(=O)OCc1ccccc1` (stereo not drawn) is 98.1 µM; for `Cc1c(O)c(OC2OC(CO)C(O)C(O)C2O)cc2c1CC[C@@H]1C2(C)C(=O)C[C@]2(C)[C@@H]([C@@](C)(O)C(=O)CCC(C)(C)O)[C@H](O)C[C@@]12C` (stereo partly drawn) it is > 100 µM; for `CCC1CCc2c(c(=O)oc3c2cc(OC)c2cccc(OC)c23)C1` (stereo not drawn) it is > 100 µM.
Same read-out and setting: the figure for `Cn1c(=O)oc2cc(C(O)CN3CCN(Cc4ccccn4)CC3)c(Cl)cc21` (stereo not drawn) is > 100 µM; for `COC(=O)[C@H](Cc1c[nH]c2ccccc12)NC(=O)c1ccc(CNC(=O)/C(C)=C/c2ccccc2)cc1` it is > 100 µM; for `C/C(=N/NC(=S)Nc1ccc(Cl)cc1)c1cccc(/C(C)=N\NC(=S)Nc2ccc(Cl)cc2)n1` it is > 100 µM.
Same read-out and setting: the figure for `O=C(O/C=C\OC1CCCC1(c1ccccc1)c1ccccc1)c1ccccc1` (stereo not drawn) is 30.5 µM.

Another assay deals with SN12C renal. Nature of the assay: DTP human tumour cell line panel, 48 h.
`Fc1ccc(C(=C2CCN(CCc3ccc4[nH]c(=S)[nH]c4c3)CC2)c2ccc(F)cc2)cc1` returned a TGI of 9.25 µM. In other words, the single-digit micromolar range.
The same measure, in the same setting: the figure for `S=c1[nH]c(=S)c2nnn(-c3ccccc3)c2[nH]1` is > 100 µM; for `CC(C)CC(NC(=O)C(CI)Cc1ccccc1)C(=O)Nc1ccccc1` (stereo not drawn) it is > 100 µM.
Same read-out and setting: the figure for `Cc1cc(C2CC(O)C(CO)O2)c(F)cc1F` (stereo not drawn) is > 100 µM.
Same read-out and setting: the figure for `CC(=O)O[C@H]1CC[C@@]2(C)C(=CC[C@@H]3[C@@H]2CC[C@]2(C)NC(=O)/C(=C\c4ccccc4)C[C@@H]32)C1` is 42 µM; for `N#CC1=C(Nc2ccccc2)SC=C(c2ccccc2)NC1=NCc1ccccc1` it is > 100 µM.
